Laboratory results from patent US20040161813A1, “Structure of beta-ketoacyl-[acyl carrier protein] synthases complexed with inhibitors and methods of use thereof” (St. Jude Children's Research Hospital, priority 2000, published 2004).
Entries after “also recorded” stand apart in the source; their conditions may differ. Read-outs that look alike come from different tables or passages of the source.

Assays:
[1] = tested on: urinary tract and intraperitoneal bacterial infections; details: mice; cited from earlier work
[2] = target: T1, E. coli FabF (β-ketoacyl-ACP synthase II) (Escherichia coli, UniProt P0AAI5); assay: FabF radiochemical condensing enzyme assay with myristoyl-ACP; format: biochemical
T1 construct: made in house
T1 sequence (P0AAI5 whole entry): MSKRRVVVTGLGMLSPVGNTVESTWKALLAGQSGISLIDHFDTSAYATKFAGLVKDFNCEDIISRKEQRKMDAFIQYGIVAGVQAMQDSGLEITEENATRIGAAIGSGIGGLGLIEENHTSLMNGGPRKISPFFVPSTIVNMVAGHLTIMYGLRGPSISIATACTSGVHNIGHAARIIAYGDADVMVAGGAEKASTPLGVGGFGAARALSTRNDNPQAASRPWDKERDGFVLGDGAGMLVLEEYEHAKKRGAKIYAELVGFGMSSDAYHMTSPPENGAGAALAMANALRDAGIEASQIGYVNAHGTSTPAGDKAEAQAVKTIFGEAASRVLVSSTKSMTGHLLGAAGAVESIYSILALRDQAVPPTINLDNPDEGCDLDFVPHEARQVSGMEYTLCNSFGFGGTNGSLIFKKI
Protocol: (§1) FabB and FabF radiochemical assay was performed using the scheme devised by Garwin et al. (11) using myristoyl-ACP as the substrate. The assays contained 100 μM ACP, 0.3 mM dithiothreitol, 1 mM EDTA, 0.1 M potassium phosphate buffer, pH 6.8, 50 μM [^14C]malonyl-CoA (specific activity 55 Ci/mole), 100 μM myristoyl-ACP, FabD (0.3 μg of protein), in a final volume of 20 μl. A mixture of ACP, 0.3 mM DTT, 1 mM EDTA, and the buffer was incubated at 37° C. for 30 min to ensure complete reduction ACP, and then the remaining components (except the condensing enzyme) were added. The mixture was then aliquoted into the assay tubes and the reaction was initiated by the addition of FabB or FabF. The reaction mixture was incubated at 37° C. for 20 min, then 400 μl of reducing agent (0.1 M K2HPO4, 0.4 M KCl, 30% tetrahydrofuran, and 5 mg/ml sodium borohydride) was added into the reaction tubes and incubated for 40 min.
(§2) Finally, 400 μl of toluene was added, vigorously mixed, and 300 μl of upper phase solution was counted in 3 ml of scintillation cocktail.

[3] = cited from earlier work
[4] = target: T2, E. coli FabH (β-ketoacyl-ACP synthase III) (Escherichia coli, UniProt P0A6R0); assay: FabH filter disc assay with [1-14C]acetyl-CoA; format: biochemical
T2 construct: made in house
T2 sequence (P0A6R0 whole entry): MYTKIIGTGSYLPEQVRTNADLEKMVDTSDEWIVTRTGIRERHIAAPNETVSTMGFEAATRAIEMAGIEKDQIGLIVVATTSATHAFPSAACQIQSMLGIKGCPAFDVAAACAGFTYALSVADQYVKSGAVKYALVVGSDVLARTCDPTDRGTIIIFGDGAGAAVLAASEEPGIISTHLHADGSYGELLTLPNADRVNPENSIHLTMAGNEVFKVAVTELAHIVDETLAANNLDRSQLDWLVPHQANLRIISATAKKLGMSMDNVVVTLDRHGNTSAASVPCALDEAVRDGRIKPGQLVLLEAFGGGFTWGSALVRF
Protocol: A filter disc assay was used to assay FabH activity with [1-^14C]acetyl-CoA as described previously (15,18). The assays contained 100 μM ACP, 1 mM β-mercaptoethanol, 45 μM [^14C]acetyl-CoA (specific activity, 52.0 Ci/mole), and 50 μM malonyl-CoA, E. coli FabD (0.3 μg) and 0.1 M sodium phosphate buffer (pH 7.0) in a final volume of 40 μl. The reaction was initiated by the addition of FabH and the mixture was incubated at 37° C. for 12 min. A 35-μl aliquot was removed and deposited on a Whatman 3MM filter disc. The discs were washed with three changes (20 ml/disc for 20 min) of ice-cold trichloroacetic acid. The concentration of the trichloroacetic acid was reduced from 10 to 5 to 1% in each successive wash. The filters were dried and counted in 3 ml of scintillation cocktail.

[5] = target: B. subtilis FabF (Bacillus subtilis, UniProt O34340); assay: Inhibition of B. subtilis FabF in vitro; format: biochemical
Sequence of B. subtilis FabF (O34340 whole entry): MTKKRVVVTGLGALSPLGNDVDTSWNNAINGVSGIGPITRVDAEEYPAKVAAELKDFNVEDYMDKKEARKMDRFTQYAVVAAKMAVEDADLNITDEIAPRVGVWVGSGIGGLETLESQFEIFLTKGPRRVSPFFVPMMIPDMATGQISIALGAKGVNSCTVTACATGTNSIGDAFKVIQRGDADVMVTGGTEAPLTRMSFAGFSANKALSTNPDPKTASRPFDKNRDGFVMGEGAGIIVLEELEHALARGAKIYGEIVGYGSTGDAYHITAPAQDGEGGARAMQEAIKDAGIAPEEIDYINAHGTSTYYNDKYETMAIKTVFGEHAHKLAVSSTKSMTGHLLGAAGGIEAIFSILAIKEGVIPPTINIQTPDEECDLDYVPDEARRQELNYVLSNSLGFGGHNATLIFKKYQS

[6] = target: T3, E. coli FabB (β-ketoacyl-ACP synthase I) (Escherichia coli, UniProt P0A953); assay: FabB radiochemical condensing enzyme assay with myristoyl-ACP; format: biochemical
T3 construct: made in house; host or cells: pET-15b-FabB expression vector; Novagen expression strains
T3 sequence (P0A953 whole entry): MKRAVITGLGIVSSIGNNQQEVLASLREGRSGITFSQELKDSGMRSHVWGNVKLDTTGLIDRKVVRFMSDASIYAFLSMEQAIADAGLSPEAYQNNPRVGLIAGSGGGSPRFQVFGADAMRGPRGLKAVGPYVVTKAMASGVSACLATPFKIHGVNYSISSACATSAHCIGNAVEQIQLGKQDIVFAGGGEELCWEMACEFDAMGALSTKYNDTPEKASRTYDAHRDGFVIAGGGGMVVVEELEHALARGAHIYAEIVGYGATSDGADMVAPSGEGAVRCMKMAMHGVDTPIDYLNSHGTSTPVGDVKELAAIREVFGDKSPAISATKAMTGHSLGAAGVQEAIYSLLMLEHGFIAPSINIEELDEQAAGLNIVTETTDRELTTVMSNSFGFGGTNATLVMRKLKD
Protocol: as §1, §2

[7] = target: T4, FabB (Escherichia coli, UniProt P0A953); assay: Time course of FabB inhibition (reversibility); format: biochemical; details: for Reversibility of FabB inhibition: 20 μM TLM or 3 μM cerulenin, with or without 30 min preincubation
T4 construct: made in house; host or cells: pET-15b-FabB expression vector; Novagen expression strains
T4 sequence (P0A953 whole entry): as above
Protocol: The time course for the inhibition of FabB activity under five experimental conditions was determined to address the reversibility of the antibiotics. Time course for the FabB reaction in the absence of inhibitors (▾), in the presence of 20 μM TLM (●) or 3 μM cerulenin (∘). FabB was preincubated with either 20 μM TLM (▪) or 3 μM cerulenin (□) for 30 min prior to initiation of the reaction by the addition of the other substrates. FabB activity was measured using the radiochemical assay with myristoyl-ACP as the substrate as described under “Experimental Procedures” in the Example below.
as §1, §2
This hypothesis was examined by comparing the kinetics of TLM inhibition to that of cerulenin (FIG. 2), which is known to form a covalent complex with the active site cysteine of the condensing enzymes. […] This indicates the formation of the irreversible FabB-cerulenin binary complex. The same two types of time course experiments were performed with TLM (FIG. 2A).

[8] = target: T5, FabB[H333N] (Escherichia coli, UniProt P0A953, H333N); assay: FabB[H333N] mutant radiochemical assay with 14:0-ACP primer; format: biochemical; details: inhibition by cerulenin
T5 construct: made in house; host or cells: pET-15b-FabB expression vector; Novagen expression strains
T5 sequence (P0A953 1-406 H333N): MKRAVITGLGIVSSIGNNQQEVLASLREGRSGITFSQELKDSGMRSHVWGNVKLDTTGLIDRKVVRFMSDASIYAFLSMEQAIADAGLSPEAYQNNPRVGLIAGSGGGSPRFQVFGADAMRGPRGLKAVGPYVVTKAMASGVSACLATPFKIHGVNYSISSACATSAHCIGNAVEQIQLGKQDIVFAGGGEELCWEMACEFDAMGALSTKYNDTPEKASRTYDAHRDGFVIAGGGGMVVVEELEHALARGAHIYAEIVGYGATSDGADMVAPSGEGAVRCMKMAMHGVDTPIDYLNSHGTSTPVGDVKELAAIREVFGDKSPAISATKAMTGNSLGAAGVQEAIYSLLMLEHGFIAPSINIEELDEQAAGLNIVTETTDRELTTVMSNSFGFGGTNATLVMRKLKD
Protocol: as §1, §2
Construction of the FabB[H333N] mutant—A portion of the fabB gene was amplified using the polymerase chain reaction with two specific primers. The first primer introduced the desired mutation, and extended over a unique AgeI site (5′-[…]-3′, SEQ ID NO:3). The second primer created a BamHI site downstream of the stop codon (5′-[…]-3′, SEQ ID NO:4). […]

Compound	Protection against urinary tract and intraperitoneal bacterial infections [1]	IC50 [2] [µM]	Toxicity to mice [3]	IC50 [4] [µM]	Inhibition of B. subtilis FabF in vitro [5]	IC50 [6] [µM]	Reversibility of FabB inhibition [7]	IC50 ([2]; purified E. coli enzyme, myristoyl-ACP substrate, read-out: IC50 FabF) [µM]	Sensitivity of FabH to inhibitor [4]	IC50 ([4]; purified E. coli enzyme, acetyl-CoA primer, read-out: IC50 FabH) [µM]	IC50 ([6]; purified E. coli enzyme, myristoyl-ACP (14:0-ACP) substrate, read-out: IC50 FabB) [µM]	Product formation after preincubation of inhibitor with FabB ([7]; 3 μM cerulenin preincubated 30 min, reaction initiated with substrates)	IC50 [8] [µM]
C=C/C(C)=C/C1(C)SC(=O)C(C)=C1O (stereo in doubt) [TLM, (4S)(2E,5E)-2,4,6-trimethyl-3-hydroxy-2,5,7-octatriene-4-thiolide]	significant protection	6	not toxic	110	very weak inhibitor	25	reversible inhibitor; also recorded: reversibly inhibited	–	–	–	–	–	–
C/C=C/C/C=C/CCC(=O)[C@H]1O[C@H]1C(N)=O [cerulenin, (2R,3S)-2,3-epoxy-4-oxo-7,10-dodecandienolyamide]	–	–	–	–	–	–	slow-binding, irreversible inhibitor; also recorded: irreversibly inhibited	20	essentially resistant	> 700	3	no discernable product formation	30
